Source: the NIST ThermoML archive (doi:10.1016/j.tca.2011.08.002)
± gives the expanded uncertainty stated by the source.

Legend:
[1] = refractive index (Na D-line) (dimensionless); xn = mol fraction of the nth substance listed; conditions: 101 kPa, Liquid, Standard Abbe refractometry
[2] = xn = mol fraction of the nth substance listed; conditions: 101 kPa, Liquid, Vibrating tube method

C1CCC(NC2CCCCC2)CC1 [N-cyclohexylcyclohexanamine] + CCC(C)O
Conditions | mass density, [2] [kg/m3] | refractive index, [1]
288.15 K, x2 = 0 | 915.498 ± 0.23 | 1.48636 ± 0.0004
288.15 K, x2 = 0.0996 | 912.349 ± 0.23 | 1.48336 ± 0.0004
288.15 K, x2 = 0.1998 | 908.349 ± 0.23 | 1.47951 ± 0.0004
288.15 K, x2 = 0.3 | 903.446 ± 0.23 | 1.47497 ± 0.0004
288.15 K, x2 = 0.3998 | 897.469 ± 0.23 | 1.46961 ± 0.0004
288.15 K, x2 = 0.5011 | 889.89 ± 0.23 | 1.4629 ± 0.0004
288.15 K, x2 = 0.599 | 880.802 ± 0.23 | 1.45516 ± 0.0004
288.15 K, x2 = 0.6999 | 869.241 ± 0.24 | 1.44554 ± 0.0004
288.15 K, x2 = 0.7998 | 854.484 ± 0.24 | 1.43365 ± 0.0004
288.15 K, x2 = 0.8996 | 835.606 ± 0.24 | 1.41884 ± 0.0004
288.15 K, x2 = 0.9494 | 823.99 ± 0.24 | 1.41002 ± 0.0004
293.15 K, x2 = 0 | 911.705 ± 0.23 | 1.48416 ± 0.0004
293.15 K, x2 = 0.0996 | 908.493 ± 0.23 | 1.48112 ± 0.0004
293.15 K, x2 = 0.1998 | 904.427 ± 0.23 | 1.47724 ± 0.0004
293.15 K, x2 = 0.3 | 899.455 ± 0.23 | 1.47268 ± 0.0004
293.15 K, x2 = 0.3998 | 893.416 ± 0.24 | 1.46731 ± 0.0004
293.15 K, x2 = 0.5011 | 885.775 ± 0.24 | 1.46057 ± 0.0004
293.15 K, x2 = 0.599 | 876.639 ± 0.24 | 1.45283 ± 0.0004
293.15 K, x2 = 0.6999 | 865.057 ± 0.24 | 1.44322 ± 0.0004
293.15 K, x2 = 0.7998 | 850.31 ± 0.24 | 1.43136 ± 0.0004
293.15 K, x2 = 0.8996 | 831.493 ± 0.24 | 1.41658 ± 0.0004
293.15 K, x2 = 0.9494 | 819.925 ± 0.24 | 1.40783 ± 0.0004
298.15 K, x2 = 0 | 907.923 ± 0.23 | 1.48198 ± 0.0004
298.15 K, x2 = 0.0996 | 904.633 ± 0.23 | 1.47892 ± 0.0004
298.15 K, x2 = 0.1998 | 900.497 ± 0.23 | 1.47499 ± 0.0004
298.15 K, x2 = 0.3 | 895.457 ± 0.24 | 1.47041 ± 0.0004
298.15 K, x2 = 0.3998 | 889.353 ± 0.24 | 1.465 ± 0.0004
298.15 K, x2 = 0.5011 | 881.646 ± 0.24 | 1.45825 ± 0.0004
298.15 K, x2 = 0.599 | 872.452 ± 0.24 | 1.4505 ± 0.0004
298.15 K, x2 = 0.6999 | 860.838 ± 0.24 | 1.44088 ± 0.0004
298.15 K, x2 = 0.7998 | 846.088 ± 0.24 | 1.42906 ± 0.0004
298.15 K, x2 = 0.8996 | 827.317 ± 0.24 | 1.41432 ± 0.0004
298.15 K, x2 = 0.9494 | 815.784 ± 0.24 | 1.40558 ± 0.0004
303.15 K, x2 = 0 | 904.144 ± 0.23 | 1.47978 ± 0.0004
303.15 K, x2 = 0.0996 | 900.775 ± 0.23 | 1.47667 ± 0.0004
303.15 K, x2 = 0.1998 | 896.561 ± 0.23 | 1.47273 ± 0.0004
303.15 K, x2 = 0.3 | 891.448 ± 0.24 | 1.46813 ± 0.0004
303.15 K, x2 = 0.3998 | 885.272 ± 0.24 | 1.4627 ± 0.0004
303.15 K, x2 = 0.5011 | 877.495 ± 0.24 | 1.45591 ± 0.0004
303.15 K, x2 = 0.599 | 868.239 ± 0.24 | 1.44817 ± 0.0004
303.15 K, x2 = 0.6999 | 856.586 ± 0.24 | 1.43852 ± 0.0004
303.15 K, x2 = 0.7998 | 841.819 ± 0.24 | 1.42671 ± 0.0004
303.15 K, x2 = 0.8996 | 823.072 ± 0.24 | 1.412 ± 0.0004
303.15 K, x2 = 0.9494 | 811.566 ± 0.24 | 1.40329 ± 0.0004
308.15 K, x2 = 0 | 900.372 ± 0.23 | 1.47761 ± 0.0004
308.15 K, x2 = 0.0996 | 896.914 ± 0.23 | 1.47445 ± 0.0004
308.15 K, x2 = 0.1998 | 892.619 ± 0.23 | 1.47046 ± 0.0004
308.15 K, x2 = 0.3 | 887.426 ± 0.24 | 1.4658 ± 0.0004
308.15 K, x2 = 0.3998 | 881.174 ± 0.24 | 1.46034 ± 0.0004
308.15 K, x2 = 0.5011 | 873.319 ± 0.24 | 1.45358 ± 0.0004
308.15 K, x2 = 0.599 | 863.994 ± 0.24 | 1.44577 ± 0.0004
308.15 K, x2 = 0.6999 | 852.289 ± 0.24 | 1.43617 ± 0.0004
308.15 K, x2 = 0.7998 | 837.495 ± 0.24 | 1.42437 ± 0.0004
308.15 K, x2 = 0.8996 | 818.755 ± 0.24 | 1.40968 ± 0.0004
308.15 K, x2 = 0.9494 | 807.262 ± 0.25 | 1.40094 ± 0.0004
313.15 K, x2 = 0 | 896.608 ± 0.23 | 1.47562 ± 0.0004
313.15 K, x2 = 0.0996 | 893.053 ± 0.23 | 1.4722 ± 0.0004
313.15 K, x2 = 0.1998 | 888.669 ± 0.24 | 1.46818 ± 0.0004
313.15 K, x2 = 0.3 | 883.39 ± 0.24 | 1.46347 ± 0.0004
313.15 K, x2 = 0.3998 | 877.057 ± 0.24 | 1.45797 ± 0.0004
313.15 K, x2 = 0.5011 | 869.116 ± 0.24 | 1.45115 ± 0.0004
313.15 K, x2 = 0.599 | 859.715 ± 0.24 | 1.44326 ± 0.0004
313.15 K, x2 = 0.6999 | 847.947 ± 0.24 | 1.43367 ± 0.0004
313.15 K, x2 = 0.7998 | 833.106 ± 0.24 | 1.42179 ± 0.0004
313.15 K, x2 = 0.8996 | 814.354 ± 0.24 | 1.40723 ± 0.0004
313.15 K, x2 = 0.9494 | 802.87 ± 0.25 | 1.39851 ± 0.0004
318.15 K, x2 = 0 | 892.847 ± 0.23 | 1.47347 ± 0.0004
318.15 K, x2 = 0.0996 | 889.189 ± 0.23 | 1.46999 ± 0.0004
318.15 K, x2 = 0.1998 | 884.706 ± 0.24 | 1.46593 ± 0.0004
318.15 K, x2 = 0.3 | 879.336 ± 0.24 | 1.46119 ± 0.0004
318.15 K, x2 = 0.3998 | 872.915 ± 0.24 | 1.45564 ± 0.0004
318.15 K, x2 = 0.5011 | 864.882 ± 0.24 | 1.44879 ± 0.0004
318.15 K, x2 = 0.599 | 855.394 ± 0.24 | 1.44089 ± 0.0004
318.15 K, x2 = 0.6999 | 843.552 ± 0.24 | 1.43125 ± 0.0004
318.15 K, x2 = 0.7998 | 828.652 ± 0.24 | 1.41937 ± 0.0004
318.15 K, x2 = 0.8996 | 809.861 ± 0.24 | 1.40479 ± 0.0004
318.15 K, x2 = 0.9494 | 798.377 ± 0.25 | 1.39613 ± 0.0004
323.15 K, x2 = 0 | 889.089 ± 0.23 | 1.47134 ± 0.0004
323.15 K, x2 = 0.0996 | 885.321 ± 0.24 | 1.46783 ± 0.0004
323.15 K, x2 = 0.1998 | 880.732 ± 0.24 | 1.46374 ± 0.0004
323.15 K, x2 = 0.3 | 875.264 ± 0.24 | 1.45889 ± 0.0004
323.15 K, x2 = 0.3998 | 868.746 ± 0.24 | 1.45336 ± 0.0004
323.15 K, x2 = 0.5011 | 860.611 ± 0.24 | 1.44656 ± 0.0004
323.15 K, x2 = 0.599 | 851.029 ± 0.24 | 1.43856 ± 0.0004
323.15 K, x2 = 0.6999 | 839.101 ± 0.24 | 1.42888 ± 0.0004
323.15 K, x2 = 0.7998 | 824.126 ± 0.25 | 1.41694 ± 0.0004
323.15 K, x2 = 0.8996 | 805.292 ± 0.25 | 1.40233 ± 0.0004
323.15 K, x2 = 0.9494 | 793.784 ± 0.25 | 1.39357 ± 0.0004
